Experimental data published in ChEMBL document CHEMBL1129579, “Carbohydrates in an acidic multivalent assembly: nanomolar P-selectin inhibitors” (J Med Chem, 1996).

Target: T1, P-selectin (Homo sapiens, UniProt P16109)
T1 sequence (P16109 whole entry): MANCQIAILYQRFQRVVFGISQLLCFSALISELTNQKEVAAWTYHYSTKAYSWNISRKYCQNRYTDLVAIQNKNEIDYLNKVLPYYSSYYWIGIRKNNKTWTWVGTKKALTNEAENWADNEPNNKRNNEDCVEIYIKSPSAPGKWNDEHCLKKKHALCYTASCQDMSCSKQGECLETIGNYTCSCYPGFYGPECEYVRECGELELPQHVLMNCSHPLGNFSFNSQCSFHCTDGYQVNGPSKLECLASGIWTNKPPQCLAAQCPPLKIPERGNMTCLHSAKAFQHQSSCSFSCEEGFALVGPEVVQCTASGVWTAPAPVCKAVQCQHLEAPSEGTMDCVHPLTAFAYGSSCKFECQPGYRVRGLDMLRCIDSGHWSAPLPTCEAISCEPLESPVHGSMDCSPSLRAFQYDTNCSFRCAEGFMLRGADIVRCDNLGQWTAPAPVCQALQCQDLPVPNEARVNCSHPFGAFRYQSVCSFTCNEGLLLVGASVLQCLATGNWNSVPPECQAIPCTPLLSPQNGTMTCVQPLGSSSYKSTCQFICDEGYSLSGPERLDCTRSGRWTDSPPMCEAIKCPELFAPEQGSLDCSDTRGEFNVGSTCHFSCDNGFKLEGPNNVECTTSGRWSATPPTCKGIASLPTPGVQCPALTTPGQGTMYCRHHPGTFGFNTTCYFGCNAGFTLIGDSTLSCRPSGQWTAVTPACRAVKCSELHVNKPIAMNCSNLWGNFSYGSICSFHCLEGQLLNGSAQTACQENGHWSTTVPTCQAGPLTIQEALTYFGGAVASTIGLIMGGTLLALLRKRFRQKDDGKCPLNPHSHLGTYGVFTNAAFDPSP
Test: Inhibitory activity against Selectin P IgG chimera binding to HL-60 cells, by binding to Selectin P
Type: cell-based

IC50 | Structure (SMILES)
2 nM | CCCCCCCCCCCCC#CC#CCCCCCCCCC(=O)NCCSCCCN(C(C)=O)[C@@H]1O[C@@H](CO)[C@@H](O[C@@H]2O[C@@H](CO)[C@H](O)[C@H](OCC(=O)O)[C@@H]2O)[C@H](O[C@@H]2O[C@@H](C)[C@@H](O)[C@H](O)[C@@H]2O)[C@@H]1O
500 nM | CCCCCCCCCCCCC#CC#CCCCCCCCCC(=O)NCCO
